Experimental data: ChEMBL document CHEMBL6109089, “Design, synthesis and optimization of Apcin analogues as Cdc20 inhibitors for triple-negative breast cancer therapy” (Eur J Med Chem, 2025)

Key:
MDA-MB-231 [1] = assay: cells; details: Homo sapiens, MDA-MB-231, 48 h
Description: Antiproliferative activity against human MDA-MB-231 cells assessed as inhibition of cell growth measured after 48 hrs by CCK-8 method

HeLa = assay: cells; details: Homo sapiens, 48 h
Description: Antiproliferative activity against human HeLa cells assessed as inhibition of cell growth measured after 48 hrs by CCK-8 method

SiHa = assay: cells; details: Homo sapiens, 48 h
Description: Antiproliferative activity against human SiHa cells assessed as inhibition of cell growth measured after 48 hrs by CCK-8 method

[2] = Selectivity index, ratio of IC50 for antiproliferative activity against human MCF7 cells to IC50 for antiproliferative activity against human MDA-MB-231 cells; type: cell-based
MDA-MB-436 = assay: cells; details: Homo sapiens, MDA-MB-436, 48 h
Description: Antiproliferative activity against human MDA-MB-436 cells assessed as inhibition of cell growth measured after 48 hrs by CCK-8 method

[3] = Antiproliferative activity against rat H9c2 cells assessed as inhibition of cell growth measured after 48 hrs by CCK-8 method; type: toxicity, cell-based
[4] = Selectivity index, ratio of IC50 for antiproliferative activity against human MCF-10A cells to IC50 for antiproliferative activity against human MDA-MB-231 cells; type: toxicity, cell-based; details: MCF-10A cells and MDA-MB-231 cells, read-out: Ratio IC50
[5] = Antiproliferative activity against human HK-2 cells assessed as inhibition of cell growth measured after 48 hrs by CCK-8 method; type: toxicity, cell-based
MCF7 = assay: cells; details: Homo sapiens, MCF7, 48 h
Description: Antiproliferative activity against human MCF7 cells assessed as inhibition of cell growth measured after 48 hrs by CCK-8 method

[6] = Antiproliferative activity against human MCF-10A cells assessed as inhibition of cell growth measured after 48 hrs by CCK-8 method; type: toxicity, cell-based
MDA-MB-231 [7] = assay: Induction of apoptosis in human MDA-MB-231 cells assessed as early apoptotic cells at 300 uM incubated for 24 hrs by Annexin V-FITC/PI staining based flow cytometry analysis (reference value: 5.40%); type: functional
MDA-MB-231 [8] = assay: Antitumor activity against human MDA-MB-231 cells xenografted in BALB/c nude mouse model assessed as reduction in tumor growth at 30 mg/kg, ip administered daily for 18 days by vernier caliper method relative to control; type: functional; design: scale not given: the % may be the effect or the level left; details: time 18 day
[9] = target: Cell division cycle protein 20 homolog (Homo sapiens, UniProt Q12834); assay: Binding affinity to Cdc20 (unknown origin) assessed as dissociation constant measured after 360 secs by surface plasmon resonance assay
Sequence of Cell division cycle protein 20 homolog (Q12834 whole entry): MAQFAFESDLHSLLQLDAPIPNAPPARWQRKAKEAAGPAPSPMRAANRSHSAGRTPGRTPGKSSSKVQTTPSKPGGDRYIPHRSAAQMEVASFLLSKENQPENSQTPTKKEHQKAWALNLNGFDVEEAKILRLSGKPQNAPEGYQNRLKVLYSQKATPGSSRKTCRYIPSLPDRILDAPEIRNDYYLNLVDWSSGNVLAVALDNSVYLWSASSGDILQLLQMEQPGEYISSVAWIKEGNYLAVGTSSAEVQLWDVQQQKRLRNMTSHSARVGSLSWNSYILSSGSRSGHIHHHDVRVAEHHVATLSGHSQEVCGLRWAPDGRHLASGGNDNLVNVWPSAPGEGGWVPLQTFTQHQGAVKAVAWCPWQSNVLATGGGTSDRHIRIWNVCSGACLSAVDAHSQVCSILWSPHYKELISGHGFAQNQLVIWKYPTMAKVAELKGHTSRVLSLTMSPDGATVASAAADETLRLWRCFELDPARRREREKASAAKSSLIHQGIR

MDA-MB-231 [10] = assay: Induction of apoptosis in human MDA-MB-231 cells assessed as necrotic cells at 300 uM incubated for 24 hrs by Annexin V-FITC/PI staining based flow cytometry analysis (reference value: 0.033%); type: functional
MDA-MB-231 [11] = assay: Induction of apoptosis in human MDA-MB-231 cells assessed as late apoptotic cells at 300 uM incubated for 24 hrs by Annexin V-FITC/PI staining based flow cytometry analysis (reference value: 0.46%); type: functional
MDA-MB-231 [12] = assay: Induction of cell cycle arrest in human MDA-MB-231 cells assessed as increase in accumulation of cells at G2/M phase at 300 uM measured after 24 hrs by PI staining based flow cytometry analysis (reference value: 26.38%); type: functional
MDA-MB-231 [13] = assay: Induction of apoptosis in human MDA-MB-231 cells assessed as viable cells at 300 uM incubated for 24 hrs by Annexin V-FITC/PI staining based flow cytometry analysis (reference value: 94.1%); type: functional; details: read-out: Activity

## Cc1ncc([N+](=O)[O-])n1CCOC(=O)NC(Nc1ncc(Cl)c(Nc2ccc(C(F)(F)F)cc2)n1)C(Cl)(Cl)Cl (centres undefined)
MDA-MB-231 [1]
  IC50: 4.19 µM

## Cc1cccc(Nc2cc(Cl)nc(NC(NC(=O)OCCn3c([N+](=O)[O-])cnc3C)C(Cl)(Cl)Cl)n2)c1 (centres undefined)
MDA-MB-231 [1]
  IC50: 7.79 µM

## O=C(NC(Nc1nc(Cl)cc(Nc2ccc(C(F)(F)F)cc2)n1)C(Cl)(Cl)Cl)OCCNC(=O)c1cnc(Cl)s1 (centres undefined)
MDA-MB-231 [1]
  IC50: 3.89 µM

## O=C(NC(Nc1nc(Cl)cc(Nc2ccc(C(F)(F)F)cc2)n1)C(Cl)(Cl)Cl)OCCCc1ccccc1 (centres undefined)
MDA-MB-231 [1]
  IC50: 6.69 µM

## Cc1ncc([N+](=O)[O-])n1CCOC(=O)NC(Nc1nc(Nc2ccc(C(F)(F)F)cc2)cc(C(F)(F)F)n1)C(Cl)(Cl)Cl (centres undefined)
MDA-MB-231 [1]
  IC50: 5.23 µM

## O=C(NC(Nc1nc(Cl)cc(Nc2ccc(C(F)(F)F)cc2)n1)C(Cl)(Cl)Cl)OCCCCc1ccccc1 (centres undefined)
MDA-MB-231 [1]
  IC50: 7.21 µM

## COc1cc(N)nc(NC(NC(=O)OCCn2c([N+](=O)[O-])cnc2C)C(Cl)(Cl)Cl)n1 (centres undefined)
MDA-MB-231 [1]
  IC50: > 100 µM
HeLa
  IC50: > 100 µM
SiHa
  IC50: 89.4 µM

## Cc1ncc([N+](=O)[O-])n1CCOC(=O)NC(Nc1nc(Cl)cc(N(C)C)n1)C(Cl)(Cl)Cl (centres undefined)
MDA-MB-231 [1]
  IC50: 36.4 µM
HeLa
  IC50: 70.2 µM
SiHa
  IC50: 47.4 µM

## O=C(NC(Nc1nc(Cl)cc(Nc2ccc(C(F)(F)F)cc2)n1)C(Cl)(Cl)Cl)OCCCc1cccnc1 (centres undefined)
MDA-MB-231 [1]
  IC50: 13.8 µM

## O=C(NC(Nc1nc(Cl)cc(Nc2ccc(C(F)(F)F)cc2)n1)C(Cl)(Cl)Cl)OCCc1cccnc1 (centres undefined)
MDA-MB-231 [1]
  IC50: 13.8 µM

## O=C(NC(Nc1nc(Cl)cc(Nc2ccc(C(F)(F)F)cc2)n1)C(Cl)(Cl)Cl)OCc1ccccc1 (centres undefined)
MDA-MB-231 [1]
  IC50: 7.63 µM

## Cc1ncc([N+](=O)[O-])n1CCOC(=O)NC(Nc1nc(Cl)cc(Nc2cccc(F)c2)n1)C(Cl)(Cl)Cl (centres undefined)
MDA-MB-231 [1]
  IC50: 8.67 µM

## Cc1ncc([N+](=O)[O-])n1CCOC(=O)NC(Nc1nc(Cl)cc(Nc2ccc(C(F)(F)F)cc2)n1)C(Cl)(Cl)Cl (centres undefined)
MDA-MB-231 [1]
  IC50: 3.98 µM
[2]
  Ratio IC50: 1.86
MDA-MB-436
  IC50: 4.6 µM
[3]
  IC50 at 48 h: 22.5 µM
[4]
  selectivity ratio: 0.93
[5]
  IC50 at 48 h: 10.1 µM
MCF7
  IC50: 7.42 µM
[6]
  IC50 at 48 h: 3.7 µM

## Cc1ncc([N+](=O)[O-])n1CCOC(=O)NC(Nc1nc(Cl)cc(Nc2cccc(C#N)c2)n1)C(Cl)(Cl)Cl (centres undefined)
MDA-MB-231 [1]
  IC50: 16.2 µM

## O=C(NC(Nc1nc(Cl)cc(Nc2ccc(C(F)(F)F)cc2)n1)C(Cl)(Cl)Cl)OCCc1ccncc1 (centres undefined)
MDA-MB-231 [1]
  IC50: 7.52 µM

## CNc1cc(Cl)nc(NC(NC(=O)OCCn2c([N+](=O)[O-])cnc2C)C(Cl)(Cl)Cl)n1 (centres undefined)
MDA-MB-231 [1]
  IC50: 56.7 µM
HeLa
  IC50: 72.3 µM
SiHa
  IC50: 56.6 µM

## Cc1ncc([N+](=O)[O-])n1CCOC(=O)NC(Nc1ncc(Br)c(Nc2ccc(C(F)(F)F)cc2)n1)C(Cl)(Cl)Cl (centres undefined)
MDA-MB-231 [1]
  IC50: 4.58 µM

## Cc1ncc([N+](=O)[O-])n1CCOC(=O)NC(Nc1nc(N)cc(Cl)n1)C(Cl)(Cl)Cl (centres undefined)
MDA-MB-231 [1]
  IC50: > 100 µM
HeLa
  IC50: 45 µM
SiHa
  IC50: 39 µM

## Cc1ncc([N+](=O)[O-])n1CCOC(=O)NC(Nc1nc(Cl)cc(Nc2ccccc2)n1)C(Cl)(Cl)Cl (centres undefined)
MDA-MB-231 [1]
  IC50: 14.1 µM
MDA-MB-436
  IC50: 13.7 µM
[3]
  IC50 at 48 h: 15.1 µM
HeLa
  IC50: 19.6 µM
[5]
  IC50 at 48 h: 18.3 µM
MCF7
  IC50: 9 µM
[6]
  IC50 at 48 h: 22.5 µM
SiHa
  IC50: 24.4 µM

## Cc1ncc([N+](=O)[O-])n1CCOC(=O)NC(Nc1nc(N)cc(F)n1)C(Cl)(Cl)Cl (centres undefined)
MDA-MB-231 [1]
  IC50: > 100 µM
HeLa
  IC50: 65.4 µM
SiHa
  IC50: > 100 µM

## Cc1ncc([N+](=O)[O-])n1CCOC(=O)NC(Nc1nc(Cl)cc(Nc2cccc(OC(F)(F)F)c2)n1)C(Cl)(Cl)Cl (centres undefined)
MDA-MB-231 [1]
  IC50: 6.76 µM

## CCN(CC)c1cc(Cl)nc(NC(NC(=O)OCCn2c([N+](=O)[O-])cnc2C)C(Cl)(Cl)Cl)n1 (centres undefined)
MDA-MB-231 [1]
  IC50: 16.2 µM
HeLa
  IC50: 38.9 µM
SiHa
  IC50: 35.7 µM

## Cc1ncc([N+](=O)[O-])n1CCOC(=O)NC(Nc1nc(Cl)cc(Nc2ccc(F)cc2)n1)C(Cl)(Cl)Cl (centres undefined)
MDA-MB-231 [1]
  IC50: 8.13 µM

## Cc1cc(N)nc(NC(NC(=O)OCCn2c([N+](=O)[O-])cnc2C)C(Cl)(Cl)Cl)n1 (centres undefined)
MDA-MB-231 [1]
  IC50: > 100 µM
HeLa
  IC50: > 100 µM
SiHa
  IC50: > 100 µM

## Cc1ccc(Nc2cc(Cl)nc(NC(NC(=O)OCCn3c([N+](=O)[O-])cnc3C)C(Cl)(Cl)Cl)n2)cc1 (centres undefined)
MDA-MB-231 [1]
  IC50: 7.62 µM

## Cc1ncc([N+](=O)[O-])n1CCOC(=O)NC(Nc1nc(Cl)cc(Nc2cccc(C(F)(F)F)c2)n1)C(Cl)(Cl)Cl (centres undefined)
MDA-MB-231 [1]
  IC50: 6.01 µM

## Cc1ncc([N+](=O)[O-])n1CCOC(=O)NC(Nc1nc(Cl)cc(Nc2ccc(C#N)cc2)n1)C(Cl)(Cl)Cl (centres undefined)
MDA-MB-231 [1]
  IC50: 11 µM

## O=C(NC(Nc1nc(Cl)cc(Nc2ccc(C(F)(F)F)cc2)n1)C(Cl)(Cl)Cl)OCCCc1ccccn1 (centres undefined)
MDA-MB-231 [1]
  IC50: 11.1 µM

## Cc1ncc([N+](=O)[O-])n1CCOC(=O)NC(Nc1ncccn1)C(Cl)(Cl)Cl (centres undefined)
MDA-MB-231 [1]
  IC50: 192 µM
[2]
  Ratio IC50: 1.53
MDA-MB-231 [7]
  Activity: 38.6%
MDA-MB-436
  IC50: 176 µM
[3]
  IC50 at 48 h: 252 µM
MDA-MB-231 [8]
  Activity: 53%
HeLa
  IC50: 198 µM
[9]
  Kd: 236 µM
[4]
  selectivity ratio: 0.84
[5]
  IC50 at 48 h: 151 µM
MCF7
  IC50: 292 µM
MDA-MB-231 [10]
  Activity: 0.7%
MDA-MB-231 [11]
  Activity: 0.95%
MDA-MB-231 [12]
  Activity: 38.8%
MDA-MB-231 [13]
  viability at 300 µM: 59.7%
[6]
  IC50 at 48 h: 161 µM
SiHa
  IC50: 203 µM

## O=C(NC(Nc1nc(Cl)cc(Nc2ccc(C(F)(F)F)cc2)n1)C(Cl)(Cl)Cl)OCCc1ccccn1 (centres undefined)
MDA-MB-231 [1]
  IC50: 5.34 µM

## O=C(NC(Nc1nc(Cl)cc(Nc2ccc(C(F)(F)F)cc2)n1)C(Cl)(Cl)Cl)OCCCc1ccncc1 (centres undefined)
MDA-MB-231 [1]
  IC50: 7.27 µM

## Cc1ncc([N+](=O)[O-])n1CCOC(=O)NC(Nc1nc(Cl)cc(Nc2ccc(OC(F)(F)F)cc2)n1)C(Cl)(Cl)Cl (centres undefined)
MDA-MB-231 [1]
  IC50: 5.65 µM

## O=C(NC(Nc1nc(Cl)cc(Nc2ccc(C(F)(F)F)cc2)n1)C(Cl)(Cl)Cl)OCCc1ccccc1 (centres undefined)
MDA-MB-231 [1]
  IC50: 6.61 µM

## O=C(NC(Nc1nc(Cl)cc(Nc2ccc(C(F)(F)F)cc2)n1)C(Cl)(Cl)Cl)OCCNC(=O)c1csc(Cl)n1 (centres undefined)
MDA-MB-231 [1]
  IC50: 7.27 µM

## Cc1ncc([N+](=O)[O-])n1CCOC(=O)NC(Nc1nc(Cl)cc(Nc2ccccc2F)n1)C(Cl)(Cl)Cl (centres undefined)
MDA-MB-231 [1]
  IC50: 16 µM

## Cn1ccnc1C(=O)NCCOC(=O)NC(Nc1nc(Cl)cc(Nc2ccc(C(F)(F)F)cc2)n1)C(Cl)(Cl)Cl (centres undefined)
MDA-MB-231 [1]
  IC50: 7.22 µM

## Cc1ncc(C(=O)NCCOC(=O)NC(Nc2nc(Cl)cc(Nc3ccc(C(F)(F)F)cc3)n2)C(Cl)(Cl)Cl)s1 (centres undefined)
MDA-MB-231 [1]
  IC50: 4.36 µM

## Cc1ncc([N+](=O)[O-])n1CCOC(=O)NC(Nc1nc(Cl)cc(-c2ccccc2)n1)C(Cl)(Cl)Cl (centres undefined)
MDA-MB-231 [1]
  IC50: 18.5 µM
HeLa
  IC50: 33.2 µM
SiHa
  IC50: 41.4 µM
